In patent US12122778B2, “Activating pyruvate kinase R” (Novo Nordisk Health Care AG, priority 2018, dated 2024) one finds activation, AC50 and Emax data, which are given here for 14 compounds.

One test addresses PKR(R510Q) (Homo sapiens, UniProt P30613, R510Q). The experiment in a line: Luminescence Biochemical Assay (Kinase Glo Plus), PKR R510Q mutant. Conditions: without FBP; for activation at 1.54 µM: 1.54 μM compound, read-out: AC50 LUM KGP woFBP % Fold@1.54 μM mean; for AC50: read-out: AC50 LUM KGP woFBP AC50 μM gmean; for Emax: read-out: AC50 LUM KGP woFBP MAX % FOLD mean. For orientation: In Kinase-Glo more light means more ATP remaining.

A further test has as its target PKR(G332S) (Homo sapiens, UniProt P30613, G332S). Put plainly: Luminescence Biochemical Assay (Kinase Glo Plus), PKR G332S mutant. Conditions: with FBP; for activation at 1.54 µM: 1.54 μM compound, read-out: AC50 LUM KGP FBP % Fold@1.54 μM mean; for AC50: read-out: AC50 LUM KGP FBP AC50 μM gmean (column A); for Emax: read-out: AC50 LUM KGP FBP MAX % FOLD mean. As for the experimental part: In some embodiments, a PKR Activating Compound can have: (1) an AC50 value of less than 0.1 μM (e.g., compounds with AC50 values of “+++” in Table 13), 0.1-1.0 μM (e.g., compounds with AC50 values of “++” in Table 13), or 1.01-40 μM (e.g., compounds with AC50 values of “+” in Table 13); (2) a MAX % Fold of 75%-250%, 250-500%, or 75%-500%; and/or (3) a % Fold@1.54 μM of 75%-250%, 250-500%, or 75%-500%. In some embodiments, a PKR Activating Compound has (1) an AC50 value of less than 1.0 μM; (2) a MAX % Fold of 75%-500%; and/or (3) a % Fold@1.54 μM of 75%-500%.
The phosphorylation of Adenosine-5′-diphosphate (ADP) by various mutants of PKR was determined by the Kinase Glo Plus Assay (Promega) in the presence or absence of FBP [D-Fructose-1,6-diphosphate; BOC Sciences, CAS: 81028-91-3] as follows. Unless otherwise indicated, all reagents were purchased from Sigma-Aldrich. All reagents were prepared in buffer containing 50 mM Tris-HCl, 100 mM KCl, 5 mM MgCl2, and 0.01% Triton X100, 0.03% BSA, and 1 mM DTT. Enzyme and PEP [Phospho(enol) pyruvic acid] were added at 2× to all wells of an assay-ready plate containing serial dilutions of test compounds or DMSO vehicle. Final enzyme concentrations for PKR(wt), PKR(R510Q), and PKR(G332S) were 0.8 nM, 0.8 nM, and 10 nM respectively. Final PEP concentration was 100 μM. The Enzyme/PEP mixture was incubated with compounds for 30 minutes at RT before the assay was initiated with the addition of 2×ADP [Adenosine-5′-diphosphate] and KinaseGloPlus. Final concentration of ADP was 100 μM. […] For assays containing FBP, that reagent is added at 30 μM upon reaction initiation. Reactions were allowed to progress for 45 minutes at RT until luminescence was recorded by the BMG PHERAstar FS Multilabel Reader. All compounds were tested in triplicate at concentrations ranging from 42.5 μM to 2.2 nM in 0.83% DMSO.
Luminescence values were converted to % Fold increase by normalizing to the average of the DMSO control and multiplying by 100. Max, min, slope and AC50 were determined by the standard four parameter fit algorithm of ActivityBase XE Runner. Compounds were evaluated with three parameters—AC50, MAX % Fold, and % Fold@1.54 μM (FIG. 1). The AC50 value for a compound is the concentration (μM) corresponding to the midway between the maximum and minimum values of the four parameter logistic curve fit (i.e., at which the % fold increase along the four parameter logistic curve fit is halfway between MAX % Fold and MIN % Fold (% Fold Midpoint)), MAX % Fold is the highest fold increase observed at any concentration of compound, and % Fold@1.54 μM is the fold increase at a compound concentration of 1.54 μM. The parameter % Fold@1.54 μM was selected to capture elements of both the AC50 and MAX % Fold and to provide a ranking based on both potency and effect. The compound concentration of 1.54 μM was chosen as one that can optimally differentiate the set of compounds based on the range of activities observed.
As set forth in Table 13 below, AC50 values (columns A, D, G) are defined as follows: ≤0.1 μM (+++); >0.1 μM and ≤1.0 μM (++); >1.0 μM and ≤40 μM (+); >40 μM (0). Max % FOLD values (columns B, E, H) are defined as follows: ≤75% (+); >75% and ≤250% (++); >250% and ≤500% (+++). % Fold@1.54 μM values (columns C, F, J) are defined as follows: ≤75% (+); >75% and ≤250% (++); >250% and ≤50000 (+++).

The structures appear in SMILES notation.

PKR(R510Q), sequence (P30613 whole entry R510Q): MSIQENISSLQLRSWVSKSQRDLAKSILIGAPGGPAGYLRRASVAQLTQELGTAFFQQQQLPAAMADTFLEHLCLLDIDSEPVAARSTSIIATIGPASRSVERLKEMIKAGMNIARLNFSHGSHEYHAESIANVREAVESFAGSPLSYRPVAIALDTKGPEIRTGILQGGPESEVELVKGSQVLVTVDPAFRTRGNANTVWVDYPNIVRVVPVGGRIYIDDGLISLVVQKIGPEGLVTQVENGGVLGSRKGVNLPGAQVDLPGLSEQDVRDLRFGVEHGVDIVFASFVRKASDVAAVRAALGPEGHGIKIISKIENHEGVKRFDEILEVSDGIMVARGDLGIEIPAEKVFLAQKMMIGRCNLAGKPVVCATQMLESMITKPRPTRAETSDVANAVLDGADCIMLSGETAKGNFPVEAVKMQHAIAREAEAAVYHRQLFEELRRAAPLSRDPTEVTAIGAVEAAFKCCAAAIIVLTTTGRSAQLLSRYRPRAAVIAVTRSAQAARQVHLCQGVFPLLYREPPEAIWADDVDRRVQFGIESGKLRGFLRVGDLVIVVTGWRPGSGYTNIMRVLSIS
PKR(G332S), sequence (P30613 whole entry G332S): as the sequence (P30613 whole entry R510Q) above, with G332S, Q510R counted along it

Turning to `O=C(NCc1ccc(F)cc1)N1CC2=C(C1)CN(S(=O)(=O)c1ccc3occc3c1)C2` [Example 20-23, 5-(1-Benzofuran-5-sulfonyl)-N-[(4-fluorophenyl)methyl]-1H,2H,3H,4H,5H,6H-pyrrolo[3,4-c]pyrrole-2-carboxamide], at PKR(R510Q), the activation at 1.54 µM lay within 75 to 250%, the AC50 is 0.1 to 1 µM and the Emax is 250 to 500%. Moreover, on PKR(G332S), the activation at 1.54 µM was in the range of 75 to 250%, the AC50 was 1 to 40 µM and the Emax lay within 75 to 250%.
`COc1cccc(CNC(=O)N2CC3=C(C2)CN(S(=O)(=O)c2cccc(F)c2)C3)c1` [Example 20-8, 5-(3-Fluorobenzenesulfonyl)-N-[(3-methoxyphenyl)methyl]-1H,2H,3H,4H,5H,6H-pyrrolo[3,4-c]pyrrole-2-carboxamide]: on PKR(R510Q), the activation at 1.54 µM fell in the range of 75 to 250%, the AC50 is 0.1 to 1 µM and the Emax fell in the range of 75 to 250%. For the same compound, on PKR(G332S), the activation at 1.54 µM lay in the range of 75 to 250%, the AC50 was in the range of 1 to 40 µM and the Emax was in the range of 75 to 250%.
As for `Cc1nc(S(=O)(=O)N2CC3=C(CN(C(=O)[C@H](C)c4ccccc4)C3)C2)cn1C` [Example 19-3, (2R)-1-{5-[(1,2-dimethyl-1H-imidazol-4-yl)sulfonyl]-1H,2H,3H,4H,5H,6H-pyrrolo[3,4-c]pyrrol-2-yl}-2-phenylpropan-1-one], on PKR(R510Q), the activation at 1.54 µM was in the range of 75 to 250%, the AC50 was 1 to 40 µM and the Emax lay in the range of 75 to 250%. For the same compound, on PKR(G332S), the activation at 1.54 µM fell in the range of 75 to 250%, the AC50 fell in the range of 0.1 to 1 µM and the Emax was in the range of 75 to 250%.
On to `COCCNC(=O)N1CC2=C(C1)CN(S(=O)(=O)c1ccc3c(c1)N(C)CCO3)C2` [Example 21-24], for which, on PKR(R510Q), the activation at 1.54 µM is 75 to 250%, the AC50 fell in the range of 0.1 to 1 µM and the Emax is 250 to 500%. Moreover, at PKR(G332S), the activation at 1.54 µM is 75 to 250%, the AC50 is 0.1 to 1 µM and the Emax was 75 to 250%.
In the case of `Cc1noc(C)c1S(=O)(=O)N1CC2=C(CN(C(=O)[C@H](O)c3ccccc3)C2)C1` [Example 18-44, (2R)-1-{5-[(dimethyl-1,2-oxazol-4-yl)sulfonyl]-1H,2H,3H,4H,5H,6H-pyrrolo[3,4-c]pyrrol-2-yl}-2-hydroxy-2-phenylethan-1-one], at PKR(R510Q), the activation at 1.54 µM lay within 75 to 250%, the AC50 was in the range of 1 to 40 µM and the Emax lay within 75 to 250%. Further, at PKR(G332S), the activation at 1.54 µM is 75 to 250%, the AC50 is 1 to 40 µM and the Emax was 75 to 250%.
`O=C(NCc1ccc(F)cc1)N1CC2=C(C1)CN(S(=O)(=O)c1cccc3cnccc13)C2` [Example 20-41, N-[(4-fluorophenyl)methyl]-5-(isoquinoline-5-sulfonyl)-1H,2H,3H,4H,5H,6H-pyrrolo[3,4-c]pyrrole-2-carboxamide]: on PKR(R510Q), the activation at 1.54 µM lay in the range of 75 to 250%, the AC50 lay in the range of 1 to 40 µM and the Emax was 75 to 250%. Also, on PKR(G332S), the activation at 1.54 µM lay within 75 to 250%, the AC50 lay in the range of 1 to 40 µM and the Emax is 75 to 250%.
Turning to `COc1ccccc1CNC(=O)N1CC2=C(C1)CN(S(=O)(=O)c1ccc3nsnc3c1)C2` [Example 20-27, 5-(2,1,3-Benzothiadiazole-5-sulfonyl)-N-[(2-methoxyphenyl)methyl]-1H,2H,3H,4H,5H,6H-pyrrolo[3,4-c]pyrrole-2-carboxamide], on PKR(R510Q), the activation at 1.54 µM was 75 to 250%, the concentration at half-maximal activity (AC50) was 1 to 40 µM and the Emax was in the range of 250 to 500%. Further, at PKR(G332S), the activation at 1.54 µM lay within 75 to 250%, the AC50 lay within 1 to 40 µM and the Emax was in the range of 75 to 250%.
Turning to `COc1cccc(CNC(=O)N2CC3=C(C2)CN(S(=O)(=O)c2cccc4cnccc24)C3)c1` [Example 20-12, 5-(Isoquinoline-5-sulfonyl)-N-[(3-methoxyphenyl)methyl]-1H,2H,3H,4H,5H,6H-pyrrolo[3,4-c]pyrrole-2-carboxamide], on PKR(R510Q), the activation at 1.54 µM is 75 to 250%, the AC50 is 1 to 40 µM and the Emax lay within 75 to 250%. Also, at PKR(G332S), the activation at 1.54 µM was in the range of 75 to 250%, the AC50 lay within 1 to 40 µM and the Emax was in the range of 75 to 250%.
For the compound `COc1ccc(CNC(=O)N2CC3=C(C2)CN(S(=O)(=O)c2cccc4cnccc24)C3)cc1` [Example 20-11, 5-(Isoquinoline-5-sulfonyl)-N-[(4-methoxyphenyl)methyl]-1H,2H,3H,4H,5H,6H-pyrrolo[3,4-c]pyrrole-2-carboxamide], on PKR(R510Q), the activation at 1.54 µM lay within 75 to 250%, the AC50 was at most 0.1 µM and the Emax fell in the range of 75 to 250%. At PKR(G332S), the activation at 1.54 µM is 75 to 250%, the AC50 fell in the range of 1 to 40 µM and the Emax is 75 to 250%.
In the case of `O=C(NCc1ccc(F)cc1)N1CC2=C(C1)CN(S(=O)(=O)c1ccc(F)cc1)C2` [Example 20-20, 5-(4-Fluorobenzenesulfonyl)-N-[(4-fluorophenyl)methyl]-1H,2H,3H,4H,5H,6H-pyrrolo[3,4-c]pyrrole-2-carboxamide], at PKR(R510Q), the activation at 1.54 µM lay in the range of 75 to 250%, the AC50 fell in the range of 0.1 to 1 µM and the Emax lay within 250 to 500%. Further, on PKR(G332S), the activation at 1.54 µM was 75 to 250%, the AC50 is at most 0.1 µM and the Emax was 75 to 250%.
Regarding `COc1cccc(CNC(=O)N2CC3=C(C2)CN(S(=O)(=O)c2ccc(F)cc2)C3)c1` [Example 20-4, 5-(4-Fluorobenzenesulfonyl)-N-[(3-methoxyphenyl)methyl]-1H,2H,3H,4H,5H,6H-pyrrolo[3,4-c]pyrrole-2-carboxamide], on PKR(R510Q), the activation at 1.54 µM is 75 to 250%, the AC50 was 0.1 to 1 µM and the Emax was in the range of 75 to 250%. Moreover, on PKR(G332S), the activation at 1.54 µM lay within 75 to 250%, the AC50 lay within 0.1 to 1 µM and the Emax was 75 to 250%.
Consider `COc1ccc(CNC(=O)N2CC3=C(C2)CN(S(=O)(=O)c2ccc(F)cc2)C3)cc1` [Example 20-3], for which, at PKR(R510Q), the activation at 1.54 µM lay in the range of 250 to 50000%, the AC50 is 0.1 to 1 µM and the Emax was in the range of 250 to 500%. Besides, at PKR(G332S), the activation at 1.54 µM fell in the range of 75 to 250%, the AC50 is at most 0.1 µM and the Emax fell in the range of 75 to 250%.
Regarding `COc1cccc(CNC(=O)N2CC3=C(C2)CN(S(=O)(=O)c2ccc4nsnc4c2)C3)c1` [Example 20-25, 5-(2,1,3-Benzothiadiazole-5-sulfonyl)-N-[(3-methoxyphenyl)methyl]-1H,2H,3H,4H,5H,6H-pyrrolo-[3,4-c]pyrrole-2-carboxamide], on PKR(R510Q), the activation at 1.54 µM was in the range of 75 to 250%, the AC50 was 1 to 40 µM and the Emax lay in the range of 75 to 250%. At PKR(G332S), the activation at 1.54 µM was in the range of 75 to 250%, the concentration at half-maximal activity (AC50) lay within 0.1 to 1 µM and the Emax lay within 75 to 250%.
Take `O=C(NCc1ccc(F)cc1)N1CC2=C(C1)CN(S(=O)(=O)c1ccc3nsnc3c1)C2` [Example 20-28, 5-(2,1,3-Benzothiadiazole-5-sulfonyl)-N-[(4-fluorophenyl)methyl]-1H,2H,3H,4H,5H,6H-pyrrolo[3,4-c]pyrrole-2-carboxamide]: on PKR(R510Q), the activation at 1.54 µM is 75 to 250%, the half-maximal activity concentration (AC50) is 1 to 40 µM and the Emax was 75 to 250%. At PKR(G332S), the activation at 1.54 µM is 75 to 250%, the AC50 lay within 1 to 40 µM and the Emax fell in the range of 75 to 250%.

The AC50 is the concentration at which the activity in the assay is half-maximal.
